The subject of this test is HBsAg. Briefly: microbe, parasite or virus in culture. The settings on record: Hepatitis B virus, HepG2.2.15.

Drawing on US10053461B2 (Hoffmann-La Roche Inc., priority 2015, dated 2018), this text covers IC50 for 26 molecules.

Procedure: HepG2.2.15 cells (Acs et al. Proc Natl Acad Sci USA, 84, (1987), 4641-4), a constitutively HBV-expressing cell line were cultured in DMEM+Glutamax-I medium (Invitrogen, Carlsbad, Calif., USA), supplemented with 10% fetal bovine serum (Invitrogen) and G418 (Invitrogen) at a final concentration of 200 mg/L and maintained in 5% CO2 at 37° C.
HepG2.2.15 cells were seeded in duplicate into white, 96-well plates at 1.5×10^4 cells/well. The cells were treated with a three-fold serial dilution series of the compounds in DMSO. The final DMSO concentration in all wells was 1% and DMSO was used as no drug control.
The HBsAg chemiluminescence immunoassay (CLIA) kit (Autobio Diagnostics Co., Zhengzhou, China, Catalog number: CL0310-2) was used to measure the levels of secreted HBV antigens semi-quantitatively. For the detection 50 μL/well culture supernatant was used and HBsAg was quantified using HBsAg chemiluminescence immunoassay (CLIA) kit (Autobio Diagnostics Co., Zhengzhou, China, Catalog number: CL0310-2), 50 μL of the supernatant was transferred to the CLIA assay plate and 50 μL of enzyme conjugate reagent was added into each well. The plates were sealed and gently agitated for 1 hour at room temperature. The supernatant-enzyme-mixture was discarded and wells were washed 6 times with 300 μL of PBS. The residual liquid was removed by plating the CLIA plate right side down on absorbent tissue paper. 25 μL of substrates A and B were added to each well. Luminance was measured using a luminometer (Mithras LB 940 Multimode Microplate Reader) after 10 minutes incubation. Dose-response curves were generated and the IC50 value was extrapolated by using the E-WorkBook Suite (ID Business Solutions Ltd., Guildford, UK). The IC50 was defined as the compound concentration (or conditioned media log dilution) at which HBsAg secretion was reduced by 50% compared to the no drug control.
The compounds of the present invention were tested for their activity to inhibit HBsAg as described herein.

One may read the IC50 as the concentration that gives 50% inhibition. `COc1cc2c(cc1OCCCCCCN)[C@H]1CCC(C)(C)[C@H]1n1cc(C(=O)O)c(=O)cc1-2` (relative stereo) [Example 24, Cis-11-((6-aminohexyl)oxy)-10-methoxy-3,3-dimethyl-7-oxo-1,2,3,3a,7,12b-hexahydrocyclopenta[c]pyrido[2,1-a]isoquinoline-6-carboxylic acid] had an IC50 of 20 nM.

Molecule `COCCCOc1cc2c(cc1OC)-c1cc(=O)c(C(=O)O)cn1[C@H]1CCN(C(=O)OCc3ccccc3)C[C@@H]21` (relative stereo) [Example 30, cis-2-((benzyloxy)carbonyl)-11-methoxy-12-(3-methoxypropoxy)-8-oxo-2,3,4,4a,8,13b-hexahydro-1H-benzo[c]pyrido[1,2-a][1,6]naphthyridine-7-carboxylic acid] gave a 50% inhibitory concentration (IC50) of 564 nM. Under `COc1cc2c(cc1OCc1ccccc1)[C@H]1CCCC[C@@H]1n1cc(C(=O)O)c(=O)cc1-2` (racemic) [Example 31, Trans-12-benzyloxy-11-methoxy-8-oxo-1,2,3,4,4a,13b-hexahydropyrido[1,2-f]phenanthridine-7-carboxylic acid] stands 120 nM. Under `COc1cc2c(cc1OCCCO)[C@H]1CCC(C)(C)[C@H]1n1cc(C(=O)O)c(=O)cc1-2` (relative stereo) [Example 13, Cis-11-(3-hydroxypropoxy)-10-methoxy-3,3-dimethyl-7-oxo-1,2,3,3a,7,12b-hexahydrocyclopenta[c]pyrido[2,1-a]isoquinoline-6-carboxylic acid] stands 5 nM; under `COc1cc2c(cc1OCCCC#N)[C@H]1CCC(C)(C)[C@H]1n1cc(C(=O)O)c(=O)cc1-2` (relative stereo) [Example 12, Cis-11-(3-cyanopropoxy)-10-methoxy-3,3-dimethyl-7-oxo-1,2,3,3a,7,12b-hexahydrocyclopenta[c]pyrido[2,1-a]isoquinoline-6-carboxylic acid], 4 nM.

For the molecule `COc1cc2c(cc1OCC(F)(F)F)[C@H]1CCC(C)(C)[C@H]1n1cc(C(=O)O)c(=O)cc1-2` (relative stereo) [Example 8, Cis-10-methoxy-3,3-dimethyl-7-oxo-11-(2,2,2-trifluoroethoxy)-1,2,3,3a,7,12b-hexahydrocyclopenta[c]pyrido[2,1-a]isoquinoline-6-carboxylic acid], it took 3 nM to reach half-maximal inhibition (IC50).

`COCCCOc1cc2c(cc1OC)-c1cc(=O)c(C(=O)O)cn1[C@H]1[C@@H]2CCC1(C)C` (racemic) [Example 2, cis-10-methoxy-11-(3-methoxypropoxy)-3,3-dimethyl-7-oxo-1,2,3,3a,7,12b-hexahydrocyclopenta[c]pyrido[2,1-a]isoquinoline-6-carboxylic acid]: the IC50 came out at 1 nM. Under `COc1cc2c(cc1OCCCCCCNC(=O)OC(C)(C)C)[C@H]1CCC(C)(C)[C@H]1n1cc(C(=O)O)c(=O)cc1-2` (relative stereo) [Example 23, Cis-11-((6-((tert-butoxycarbonyl)amino)hexyl)oxy)-10-methoxy-3,3-dimethyl-7-oxo-1,2,3,3a,7,12b-hexahydrocyclopenta[c]pyrido[2,1-a]isoquinoline-6-carboxylic acid] stands 2 nM; under `COc1cc2c(cc1OCCCC(=O)O)[C@H]1CCC(C)(C)[C@H]1n1cc(C(=O)O)c(=O)cc1-2` (relative stereo) [Example 19, Cis-11-(3-carboxypropoxy)-10-methoxy-3,3-dimethyl-7-oxo-1,2,3,3a,7,12b-hexahydrocyclopenta[c]pyrido[2,1-a]isoquinoline-6-carboxylic acid], 505 nM. In the case of `COCCCOc1cc2c(cc1OC)-c1cc(=O)c(C(=O)O)cn1[C@@H]1CCOC[C@H]21` (relative stereo) [Example 34, cis-11-methoxy-12-(3-methoxypropoxy)-8-oxo-1,3,4,4a,8,13b-hexahydropyrano[4,3-c]pyrido[2,1-a]isoquinoline-7-carboxylic acid] it was 186 nM; in that of `COc1cc2c(cc1OCc1ccccc1)[C@@H]1CCCC[C@@H]1n1cc(C(=O)O)c(=O)cc1-2` (relative stereo) [Example 32, cis-12-benzyloxy-11-methoxy-8-oxo-1,2,3,4,4a,13b-hexahydropyrido[1,2-f]phenanthridine-7-carboxylic acid], 44 nM; in that of `COc1cc2c(cc1OCCCCCCNS(C)(=O)=O)[C@H]1CCC(C)(C)[C@H]1n1cc(C(=O)O)c(=O)cc1-2` (relative stereo) [Example 26, Cis-10-methoxy-3,3-dimethyl-11-((6-(methylsulfonamido)hexyl)oxy)-7-oxo-1,2,3,3a,7,12b-hexahydrocyclopenta[c]pyrido[2,1-a]isoquinoline-6-carboxylic acid], 2 nM. Under `COCCCOc1cc2c(cc1OC)-c1cc(=O)c(C(=O)O)cn1[C@H]1[C@H]2CCC1(C)C` (relative stereo) [Example 1, Trans-10-methoxy-11-(3-methoxypropoxy)-3,3-dimethyl-7-oxo-1,2,3,3a,7,12b-hexahydrocyclopenta[c]pyrido[2,1-a]isoquinoline-6-carboxylic acid] stands 10 nM; under `COc1cc2c(cc1OCC1CC1)[C@H]1CCC(C)(C)[C@H]1n1cc(C(=O)O)c(=O)cc1-2` (relative stereo) [Example 10, Cis-11-(cyclopropylmethoxy)-10-methoxy-3,3-dimethyl-7-oxo-1,2,3,3a,7,12b-hexahydrocyclopenta[c]pyrido[2,1-a]isoquinoline-6-carboxylic acid], 1 nM; under `COc1cc2c(cc1OCCCN1CCCC1=O)[C@H]1CCC(C)(C)[C@H]1n1cc(C(=O)O)c(=O)cc1-2` (relative stereo) [Example 17, Cis-10-methoxy-3,3-dimethyl-7-oxo-11-(3-(2-oxopyrrolidin-1-yl)propoxy)-1,2,3,3a,7,12b-hexahydrocyclopenta[c]pyrido[2,1-a]isoquinoline-6-carboxylic acid], 25 nM.

In turn, `COCCCOc1cc2c(cc1OC)-c1cc(=O)c(C(=O)O)cn1[C@@H]1CCS(=O)(=O)C[C@@H]21` (relative stereo) [Example 37, Trans-11-methoxy-12-(3-methoxypropoxy)-8-oxo-1,3,4,4a,8,13b-hexahydropyrido[2,1-a]thiopyrano[4,3-c]isoquinoline-7-carboxylic acid 2,2-dioxide] yielded a half-maximal inhibitory concentration (IC50) of 2200 nM. `COc1cc2c(cc1C)[C@H]1CCC(C)(C)[C@H]1n1cc(C(=O)O)c(=O)cc1-2` (relative stereo) [Example 38, Cis-10-methoxy-3,3,11-trimethyl-7-oxo-1,2,3,3a,7,12b-hexahydrocyclopenta[c]pyrido[2,1-a]isoquinoline-6-carboxylic acid]: inhibition was half-maximal at 36 nM (IC50). In the case of `COc1cc2c(cc1OCCCN1CCCC1)[C@H]1CCC(C)(C)[C@H]1n1cc(C(=O)O)c(=O)cc1-2` (relative stereo) [Example 16, Cis-10-methoxy-3,3-dimethyl-7-oxo-11-(3-(pyrrolidin-1-yl)propoxy)-1,2,3,3a,7,12b-hexahydrocyclopenta[c]pyrido[2,1-a]isoquinoline-6-carboxylic acid] it was 128 nM. As to `COc1cc2c(cc1N1CCCC1)[C@H]1CCC(C)(C)[C@H]1n1cc(C(=O)O)c(=O)cc1-2` (relative stereo) [Example 41, Cis-10-methoxy-3,3-dimethyl-7-oxo-11-(pyrrolidin-1-yl)-1,2,3,3a,7,12b-hexahydrocyclopenta[c]pyrido[2,1-a]isoquinoline-6-carboxylic acid], the half-maximal inhibitory concentration (IC50) is under 1.6 nM. In the case of `COCCCOc1cc2c(cc1OC)-c1cc(=O)c(C(=O)O)cn1[C@@H]1CCOC[C@@H]21` (relative stereo) [Example 33, Trans-11-methoxy-12-(3-methoxypropoxy)-8-oxo-1,3,4,4a,8,13b-hexahydropyrano[4,3-c]pyrido[2,1-a]isoquinoline-7-carboxylic acid] it was 265 nM; in that of `COc1cc2c(cc1OCCCS(C)(=O)=O)[C@H]1CCC(C)(C)[C@H]1n1cc(C(=O)O)c(=O)cc1-2` (relative stereo) [Example 21, Cis-10-methoxy-3,3-dimethyl-11-(3-(methylsulfonyl)propoxy)-7-oxo-1,2,3,3a,7,12b-hexahydrocyclopenta[c]pyrido[2,1-a]isoquinoline-6-carboxylic acid], 17 nM; in that of `COCCCOc1cc2c(cc1Cl)-c1cc(=O)c(C(=O)O)cn1[C@@H]1CCCCC[C@@H]21` (relative stereo) [Example 27, Trans-13-chloro-12-(3-methoxypropoxy)-2-oxo-2,5a,6,7,8,9,10,10a-octahydrocyclohepta[c]pyrido[2,1-a]isoquinoline-3-carboxylic acid], 20 nM. In the case of `COCCCOc1cc2c(cc1OC)-c1cc(=O)c(C(=O)O)cn1[C@H]1CCN(C(=O)OCc3ccccc3)C[C@H]21` (relative stereo) [Example 29, Trans-2-((benzyloxy)carbonyl)-11-methoxy-12-(3-methoxypropoxy)-8-oxo-2,3,4,4a,8,13b-hexahydro-1H-benzo[c]pyrido[1,2-a][1,6]naphthyridine-7-carboxylic acid] it was 152 nM; in that of `COCCOc1cc2c(cc1OC)-c1cc(=O)c(C(=O)O)cn1[C@H]1[C@@H]2CCC1(C)C` (relative stereo) [Example 11, Cis-10-methoxy-11-(2-methoxyethoxy)-3,3-dimethyl-7-oxo-1,2,3,3a,7,12b-hexahydrocyclopenta[c]pyrido[2,1-a]isoquinoline-6-carboxylic acid], 4 nM; in that of `COc1cc2c(cc1OCCCCCCO)[C@H]1CCC(C)(C)[C@H]1n1cc(C(=O)O)c(=O)cc1-2` (relative stereo) [Example 22, Cis-11-((6-hydroxyhexyl)oxy)-10-methoxy-3,3-dimethyl-7-oxo-1,2,3,3a,7,12b-hexahydrocyclopenta[c]pyrido[2,1-a]isoquinoline-6-carboxylic acid], 1 nM. Under `COc1cc2c(cc1OCCCSC)[C@H]1CCC(C)(C)[C@H]1n1cc(C(=O)O)c(=O)cc1-2` (relative stereo) [Example 20, Cis-10-methoxy-3,3-dimethyl-11-(3-(methylthio)propoxy)-7-oxo-1,2,3,3a,7,12b-hexahydrocyclopenta[c]pyrido[2,1-a]isoquinoline-6-carboxylic acid] stands 2 nM.
